Reference: ChEMBL document CHEMBL4321804, “Myrmenaphthol A, Isolated from a Hawaiian Sponge of the Genus Myrmekioderma” (J Nat Prod, 2019)
In brackets after ≈: the same amount, converted by molar mass. Activity calls are given as the source filed them. The rule behind the calls is not given here.

How the values were obtained:
[1] = target: T1, Estrogen receptor (Homo sapiens) (UniProt P03372); test: Agonist activity at GST-tagged ER-alpha ligand binding domain (unknown origin) assessed as fluorescein PGC1a coactivator peptide recruitment incubated up to 24 hrs by LanthaScreen TR-FRET co-regulator assay
T1 sequence (whole entry): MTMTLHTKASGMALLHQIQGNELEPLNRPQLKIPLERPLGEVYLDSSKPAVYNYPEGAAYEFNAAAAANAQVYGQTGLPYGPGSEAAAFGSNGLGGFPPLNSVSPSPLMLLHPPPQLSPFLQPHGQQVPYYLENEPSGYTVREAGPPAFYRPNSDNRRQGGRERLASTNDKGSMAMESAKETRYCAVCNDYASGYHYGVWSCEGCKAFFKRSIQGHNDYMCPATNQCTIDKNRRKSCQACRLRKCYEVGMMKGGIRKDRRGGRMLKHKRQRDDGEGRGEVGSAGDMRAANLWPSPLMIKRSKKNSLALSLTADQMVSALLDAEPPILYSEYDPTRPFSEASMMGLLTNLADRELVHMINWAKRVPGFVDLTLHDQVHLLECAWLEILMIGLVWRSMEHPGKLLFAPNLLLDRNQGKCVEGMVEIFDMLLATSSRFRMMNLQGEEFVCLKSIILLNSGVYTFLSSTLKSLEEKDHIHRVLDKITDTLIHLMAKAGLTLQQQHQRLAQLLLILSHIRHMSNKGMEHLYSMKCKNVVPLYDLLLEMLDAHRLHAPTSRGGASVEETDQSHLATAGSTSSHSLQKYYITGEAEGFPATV

[2] = system: HeLa; test: Cytotoxicity against human HeLa cells incubated for 72 hrs by MTT assay; type: functional, cell-based
[3] = system: P388; test: Cytotoxicity against mouse P388 cells incubated for 72 hrs by MTT assay; type: functional, cell-based; conditions: P388, 72 h
[4] = target: T2, Estrogen receptor (Homo sapiens, UniProt P03372); test: Displacement of [3H]-estradiol from human recombinant estrogen receptor expressed in insect cells incubated for 17 hrs by radioactive receptor binding assay
T2 sequence (P03372 whole entry): T1 sequence (whole entry)

[5] = target: T1, Estrogen receptor (Homo sapiens); test: Antagonist activity at 17-beta-estradiol-stimulated GST-tagged ER-alpha ligand binding domain (unknown origin) assessed as fluorescein PGC1a coactivator peptide recruitment incubated up to 24 hrs by LanthaScreen TR-FRET co-regulator assay
[6] = target: T1, Estrogen receptor (Homo sapiens); test: Inhibition of 17-beta-estradiol-stimulated human ER alpha-binding domain at 100 uM by LanthaScreen TR-FRET coregulator assay

Row | Compound | Activity [1] | IC50 [2] [µg/mL] | IC50 [3] [µg/mL] | IC50 [4] [µM] | inhibition [5] | inhibition [6] [%]
1 | C[C@@H]1C[C@@]12c1ccc3c(ccc4ccc(O)cc43)c1C[C@@H]2O | inactive | 0.4 (≈ 1.38 µM) | 4.5 (≈ 15.5 µM) | 0.01 | inactive | 30
2 | C/C=C1/C(=O)C(O)=C2c3ccc4ccc(O)cc4c3CC[C@@]21C | inactive |  |  |  | inactive | 30
